Assay in all cases: Pre-emergent herbicidal activity (Table A)
Common to all, as to type: in vivo

The subject of one assay is Morningglory. The settings on record: Ipomoea, pre-emergence, Mogl, 11.2 kg/ha, 10-14 days, read-out: herbicidal rating (% inhibition). The procedure, abridged:
(§1)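 Percent inhibition per species, scored on a rating scale, after pre-emergent soil incorporation: test compound in acetone or water carrier mixed into cover soil, layered over seeded topsoil or vegetative propagules.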

For a further assay, the system named is Yellow Nutsedge. The settings on record: Cyperus, pre-emergence, Yens, 11.2 kg/ha, 10-14 days, read-out: herbicidal rating (% inhibition). In outline:
as §1

In the next assay the test system is Velvetleaf. The settings on record: Abutilon theophrasti, pre-emergence, Vele, 11.2 kg/ha, 10-14 days, read-out: herbicidal rating (% inhibition). In outline: as §1
The subject of a further assay is Cocklebur. Conditions: Xanthium strumarium, pre-emergence, Cobu, 11.2 kg/ha, 10-14 days, read-out: herbicidal rating (% inhibition). In outline:
as §1

Another assay deals with Downy Brome. The settings on record: Bromus tectorum, pre-emergence, Dobr, 11.2 kg/ha, 10-14 days, read-out: herbicidal rating (% inhibition). The procedure, abridged:
as §1

The subject of another assay is Barnyardgrass. The settings on record: Echinochloa crus-galli, pre-emergence, Bygr, 11.2 kg/ha, 10-14 days, read-out: herbicidal rating (% inhibition). The procedure, abridged:
as §1

A further assay deals with Annual Bluegrass. Conditions: pre-emergence, Anbg, 11.2 kg/ha, 10-14 days, read-out: herbicidal rating (% inhibition). The procedure, abridged:
(§2)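 Seeds were sown on compacted topsoil and covered with soil into which test compound (in acetone or water carrier) had been mixed at 11.2 kg/ha. Pans were kept watered on a greenhouse bench, and percent inhibition was scored as a rating about 10-14 days (usually 11) after treatment.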

The test system of a further assay is Indian Mustard. The settings on record: Brassica juncea, pre-emergence, Inmu, 11.2 kg/ha, 10-14 days, read-out: herbicidal rating (% inhibition). The procedure, abridged:
as §2

The test system of another assay is Wild Buckwheat. The settings on record: Fallopia convolvulus, pre-emergence, Wibw, 11.2 kg/ha, 10-14 days, read-out: herbicidal rating (% inhibition). The procedure, abridged:
as §2

The next assay concerns Seedling Johnsongrass. Conditions: Sorghum halepense, pre-emergence, Sejg, 11.2 kg/ha, 10-14 days, read-out: herbicidal rating (% inhibition). In outline:
as §2

The structures appear in SMILES notation.

Regarding `COC(=O)c1c(OC)nc(C(F)(F)F)c(C2OCCO2)c1CC1CC1` [Compound 118, 3-pyridinecarboxylic acid, 4-(cyclopropylmethyl)-5-(1,3-dioxolan-2-yl)-2-methoxy-6-(trifluoromethyl)-, methyl ester], the inhibition at 11200 g/ha in the assay on Morningglory lay in the range of 75 to 100%; in the assay on Yellow Nutsedge, 75 to 100%; with Velvetleaf, 75 to 100%; in the assay with Cocklebur, 0 to 24%; with Downy Brome it was 75 to 100%; with Barnyardgrass, 75 to 100%. In addition, the inhibition at 11200 g/ha with Annual Bluegrass, in the assay on Indian Mustard, in the assay on Wild Buckwheat and in the assay on Seedling Johnsongrass was 75 to 100% throughout.
For `COC(=O)c1c(OC)nc(C(F)(F)F)c(C(=O)SC)c1CC1CC1` [Compound 119, 3-pyridinecarboxylic acid, 4-(cyclopropylmethyl)-2-methoxy-5-[(methylthio)carbonyl]-6-(trifluoromethyl)-, methyl ester], the inhibition at 11200 g/ha in the assay on Morningglory lay within 75 to 100%; with Yellow Nutsedge it was 75 to 100%; with Velvetleaf, 75 to 100%; with Cocklebur it was 50 to 74%; with Downy Brome, 75 to 100%; with Barnyardgrass, 75 to 100%. The inhibition at 11200 g/ha in the assay on Annual Bluegrass, in the assay on Indian Mustard, in the assay on Wild Buckwheat and in the assay with Seedling Johnsongrass was 75 to 100% throughout.
Consider `COC(=O)c1c(OC)nc(C(F)(F)F)c(N=C2CCCO2)c1CC(C)C` [Compound 121, 3-pyridinecarboxylic acid, 5-[(dihydro-2(3H)-furanylidene)amino]-2-methoxy-4-(2-methylpropyl)-6-(trifluoromethyl)-, methyl ester], for which the inhibition at 11200 g/ha was 50 to 74% in the assay with Morningglory; 50 to 74% with Yellow Nutsedge; 75 to 100% in the assay on Velvetleaf; 75 to 100% in the assay on Cocklebur; 75 to 100% with Downy Brome; 75 to 100% with Barnyardgrass. In addition, the inhibition at 11200 g/ha in the assay with Annual Bluegrass, in the assay on Indian Mustard, with Wild Buckwheat and with Seedling Johnsongrass was 75 to 100% throughout.
For `COC(=O)c1c(OC)nc(C(F)(F)F)c(C2OCCS2)c1CC(C)C` (stereo not drawn) [Compound 122, 3-pyridinecarboxylic acid, 2-methoxy-4-(2-methylpropyl)-5-(1,3-oxathiolan-2-yl)-6-(trifluoromethyl)-, methyl ester], the inhibition at 11200 g/ha in the assay with Morningglory is 75 to 100%; in the assay on Yellow Nutsedge it was 50 to 74%; with Velvetleaf, 75 to 100%; in the assay on Cocklebur it was 0 to 24%; with Downy Brome, 75 to 100%; in the assay with Barnyardgrass, 75 to 100%. Besides, the inhibition at 11200 g/ha with Annual Bluegrass, with Indian Mustard, in the assay on Wild Buckwheat and in the assay with Seedling Johnsongrass was 75 to 100% in each case.
Regarding `COC(=O)c1c(OC)nc(C(F)(F)F)c(C2OCC(=O)O2)c1CC(C)C` (stereo not drawn) [Compound 123, 3-pyridinecarboxylic acid, 2-methoxy-4-(2-methylpropyl)-5-(4-oxo-1,3-dioxolan-2-yl)-6-(trifluoromethyl)-, methyl ester], the inhibition at 11200 g/ha with Morningglory was 25 to 49%; with Yellow Nutsedge, 0 to 24%; with Velvetleaf it was 25 to 49%; in the assay on Cocklebur, 0 to 24%; in the assay on Downy Brome, 75 to 100%; in the assay with Barnyardgrass it was 75 to 100%. Also, the inhibition at 11200 g/ha with Annual Bluegrass, in the assay with Indian Mustard, in the assay on Wild Buckwheat and in the assay on Seedling Johnsongrass was 75 to 100% each time.
Turning to `CCOC=NNC(=O)c1c(C(F)(F)F)nc(OC)c(C(=O)OC)c1CC(C)C` [Compound 124, 3,5-pyridinedicarboxylic acid, 2-methoxy-4-(2-methylpropyl)-6-(trifluoromethyl)-, 3-methyl ester, 5-(ethoxymethylene)hydrazide], the inhibition at 11200 g/ha in the assay on Morningglory, in the assay with Yellow Nutsedge, in the assay with Velvetleaf, in the assay on Cocklebur, with Downy Brome and with Barnyardgrass was 0 to 24% each time. Also, the inhibition at 11200 g/ha with Annual Bluegrass, with Indian Mustard, in the assay on Wild Buckwheat and in the assay on Seedling Johnsongrass was 0 to 24% each time.
As for `COC(=O)c1c(OC)nc(C(F)(F)F)c(-c2nnco2)c1CC(C)C` [Compound 125, 3-pyridinecarboxylic acid, 2-methoxy-4-(2-methylpropyl)-5-(1,3,4-oxadiazo1-2-yl)-6-(trifluoromethyl)-, methyl ester], the inhibition at 11200 g/ha lay within 75 to 100% in the assay on Morningglory; 0 to 24% in the assay with Yellow Nutsedge; 75 to 100% in the assay on Velvetleaf; 0 to 24% with Cocklebur; 75 to 100% with Downy Brome; 75 to 100% in the assay on Barnyardgrass. For the same compound, the inhibition at 11200 g/ha in the assay on Annual Bluegrass, in the assay with Indian Mustard, in the assay on Wild Buckwheat and with Seedling Johnsongrass was 75 to 100% throughout.
Turning to `COC(=O)c1c(OC)nc(C(F)(F)F)c(C2OCC[S+]2[O-])c1CC(C)C` (stereo not drawn) [Compound 126, 3-pyridinecarboxylic acid, 2-methoxy-4-(2-methylpropyl)-5-(1,3-oxathiolan-2-yl)-6-(trifluoromethyl)-, methyl ester, S-oxide], the inhibition at 11200 g/ha in the assay on Morningglory is 75 to 100%; in the assay with Yellow Nutsedge, 0 to 24%; with Velvetleaf, 75 to 100%; with Cocklebur, 25 to 49%; in the assay with Downy Brome, 75 to 100%; in the assay with Barnyardgrass, 75 to 100%. Further, the inhibition at 11200 g/ha in the assay on Annual Bluegrass, with Indian Mustard, in the assay with Wild Buckwheat and in the assay on Seedling Johnsongrass was 75 to 100% throughout.
For `COC(=O)c1c(OC)nc(C(F)(F)F)c(C2OCCS2(=O)=O)c1CC(C)C` (stereo not drawn) [Compound 127, 3-pyridinecarboxylic acid, 2-methoxy-4-(2-methylpropyl)-5-(3,3-dioxo-1,3-oxathiolan-2-yl)-6-(trifluoromethyl)-, methyl ester], the inhibition at 11200 g/ha was 25 to 49% in the assay on Morningglory; 0 to 24% in the assay on Yellow Nutsedge; 25 to 49% in the assay with Velvetleaf; 0 to 24% in the assay with Cocklebur; 75 to 100% with Downy Brome; 75 to 100% in the assay on Barnyardgrass. The inhibition at 11200 g/ha in the assay with Annual Bluegrass lay in the range of 75 to 100%; in the assay with Indian Mustard, 50 to 74%; in the assay with Wild Buckwheat, 50 to 74%; with Seedling Johnsongrass, 75 to 100%.
For `COC(=O)c1c(OC)nc(C(F)(F)F)c(C=NCCO)c1CC(C)C` [Compound 128], the inhibition at 11200 g/ha with Morningglory lay within 50 to 74%; in the assay with Yellow Nutsedge, 0 to 24%; in the assay with Velvetleaf, 25 to 49%; with Cocklebur, 0 to 24%; in the assay with Downy Brome, 75 to 100%; in the assay with Barnyardgrass, 75 to 100%. In addition, the inhibition at 11200 g/ha lay in the range of 75 to 100% with Annual Bluegrass, 75 to 100% in the assay with Indian Mustard, 50 to 74% in the assay with Wild Buckwheat and 75 to 100% in the assay with Seedling Johnsongrass.
As for `COC(=O)c1c(OC)nc(C(F)(F)F)c(-c2nccs2)c1CC(C)C` [Compound 129, 3-pyridinecarboxylic acid, 2-methoxy-4-(2-methylpropyl)-5-(2-thiazolyl)-6-(trifluoromethyl)-, methyl ester], the inhibition at 11200 g/ha was 75 to 100% in the assay on Morningglory; 75 to 100% in the assay with Yellow Nutsedge; 75 to 100% with Velvetleaf; 50 to 74% with Cocklebur; 75 to 100% in the assay on Downy Brome; 75 to 100% with Barnyardgrass. Besides, the inhibition at 11200 g/ha in the assay with Annual Bluegrass, in the assay on Indian Mustard, in the assay on Wild Buckwheat and in the assay with Seedling Johnsongrass was 75 to 100% throughout.
Take `COC(=O)c1c(OC)nc(C(F)(F)F)c(-c2ncco2)c1CC(C)C` [Compound 130, 3-pyridinecarboxylic acid, 2-methoxy-4-(2-methylpropyl)-5-(2-oxazolyl)-6-(trifluoromethyl)-, methyl ester]: the inhibition at 11200 g/ha in the assay with Morningglory was 75 to 100%; in the assay on Yellow Nutsedge it was 75 to 100%; with Velvetleaf it was 75 to 100%; in the assay on Cocklebur, 25 to 49%; in the assay with Downy Brome, 75 to 100%; in the assay on Barnyardgrass, 75 to 100%. For the same compound, the inhibition at 11200 g/ha in the assay with Annual Bluegrass, in the assay on Indian Mustard, in the assay with Wild Buckwheat and with Seedling Johnsongrass was 75 to 100% throughout.

The record behind these values is patent publication US5391540A, “Substituted pyridine compounds” (Rohm and Haas Company, priority 1993, dated 1995).
